# Assays:
# [1] = Octanol-water partition coefficient, log P of the compound
# [2] = (§1) Permeability from apical to basolateral side of MDCK2 cells over expressing MDR1 at 5 uM in presence LSN335984 pretreated for 30 mins measured after 1 hr; settings: dog, MDCK-MDR1, 1 h, 5 µM
# [3] = Permeability from apical to basolateral side of MDCK2 cell monolayer over expressing MDR1 assessed as drug concentration associated with cell at 5 uM after 1 hr of drug washout by methanol in presence of LSN335984; settings: dog
# [4] = (§2) Permeability from apical to basolateral side of MDCK2 cells over expressing MDR1 at 5 uM after 1 hr; settings: dog, MDCK-MDR1, 1 h, 5 µM
# [5] = (§3) Permeability from basolateral to apical side of MDCK2 cells over expressing MDR1 at 5 uM after 1 hr; settings: dog, MDCK-MDR1, 1 h, 5 µM
# [6] = (§4) Permeability from basolateral to apical side of MDCK2 cells over expressing MDR1 at 5 uM in presence LSN335984 pretreated for 30 mins measured after 1 hr; settings: dog, MDCK-MDR1, 1 h, 5 µM
# [7] = Permeability from apical to basolateral side of MDCK2 cell monolayer over expressing MDR1 assessed as drug concentration associated with cell at 5 uM after 1 hr of drug washout by methanol; settings: dog
# [8] = molecular target: T1, ATP-dependent translocase ABCB1 (Homo sapiens, UniProt P08183); assay: Inhibition of human MDR1 expressed in MDCK2 cells assessed as enhancement of Calcein-AM uptake treated 30 mins before Calcein-AM challenge measured after 20 mins
# T1 sequence (P08183 whole entry): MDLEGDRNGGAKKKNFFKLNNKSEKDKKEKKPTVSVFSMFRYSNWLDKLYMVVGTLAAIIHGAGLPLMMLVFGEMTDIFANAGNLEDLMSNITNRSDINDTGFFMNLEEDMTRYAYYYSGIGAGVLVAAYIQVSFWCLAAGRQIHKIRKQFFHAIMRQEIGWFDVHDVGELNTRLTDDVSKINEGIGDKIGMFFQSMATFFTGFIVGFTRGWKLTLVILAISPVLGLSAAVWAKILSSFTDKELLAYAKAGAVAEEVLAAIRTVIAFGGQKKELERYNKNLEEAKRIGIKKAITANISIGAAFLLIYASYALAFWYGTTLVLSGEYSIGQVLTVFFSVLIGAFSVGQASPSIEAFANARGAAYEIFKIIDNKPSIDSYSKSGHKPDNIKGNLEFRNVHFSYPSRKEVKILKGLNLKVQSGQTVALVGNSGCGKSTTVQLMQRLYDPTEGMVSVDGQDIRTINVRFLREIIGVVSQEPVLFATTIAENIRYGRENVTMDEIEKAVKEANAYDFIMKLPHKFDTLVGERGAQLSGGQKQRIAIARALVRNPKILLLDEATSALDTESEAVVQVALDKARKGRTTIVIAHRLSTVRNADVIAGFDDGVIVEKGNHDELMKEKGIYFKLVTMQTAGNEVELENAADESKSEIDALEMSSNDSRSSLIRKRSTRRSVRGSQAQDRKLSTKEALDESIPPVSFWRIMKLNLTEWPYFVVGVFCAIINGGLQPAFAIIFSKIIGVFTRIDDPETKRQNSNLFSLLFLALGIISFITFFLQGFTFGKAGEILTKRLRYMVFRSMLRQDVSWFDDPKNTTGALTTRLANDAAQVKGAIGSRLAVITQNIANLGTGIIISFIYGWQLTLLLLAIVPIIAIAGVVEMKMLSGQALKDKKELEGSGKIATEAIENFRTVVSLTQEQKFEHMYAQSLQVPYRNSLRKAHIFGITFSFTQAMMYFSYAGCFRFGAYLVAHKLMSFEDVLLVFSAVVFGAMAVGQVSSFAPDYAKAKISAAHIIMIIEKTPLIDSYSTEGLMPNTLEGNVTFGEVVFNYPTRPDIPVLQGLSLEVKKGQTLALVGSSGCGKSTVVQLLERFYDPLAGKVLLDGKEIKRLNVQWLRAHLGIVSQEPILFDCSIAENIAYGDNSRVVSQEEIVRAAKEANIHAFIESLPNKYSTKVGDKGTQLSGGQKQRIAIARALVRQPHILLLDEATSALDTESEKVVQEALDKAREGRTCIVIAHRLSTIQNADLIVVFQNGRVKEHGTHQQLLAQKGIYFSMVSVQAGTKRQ
# MDR3 (ABCB1) = MDR3 (ABCB1) (Mus musculus, UniProt P21447); assay: Induction of mouse cysteine-less MDR3 ATPase activity relative to basal activity
# MDR3 (ABCB1), sequence (P21447 whole entry): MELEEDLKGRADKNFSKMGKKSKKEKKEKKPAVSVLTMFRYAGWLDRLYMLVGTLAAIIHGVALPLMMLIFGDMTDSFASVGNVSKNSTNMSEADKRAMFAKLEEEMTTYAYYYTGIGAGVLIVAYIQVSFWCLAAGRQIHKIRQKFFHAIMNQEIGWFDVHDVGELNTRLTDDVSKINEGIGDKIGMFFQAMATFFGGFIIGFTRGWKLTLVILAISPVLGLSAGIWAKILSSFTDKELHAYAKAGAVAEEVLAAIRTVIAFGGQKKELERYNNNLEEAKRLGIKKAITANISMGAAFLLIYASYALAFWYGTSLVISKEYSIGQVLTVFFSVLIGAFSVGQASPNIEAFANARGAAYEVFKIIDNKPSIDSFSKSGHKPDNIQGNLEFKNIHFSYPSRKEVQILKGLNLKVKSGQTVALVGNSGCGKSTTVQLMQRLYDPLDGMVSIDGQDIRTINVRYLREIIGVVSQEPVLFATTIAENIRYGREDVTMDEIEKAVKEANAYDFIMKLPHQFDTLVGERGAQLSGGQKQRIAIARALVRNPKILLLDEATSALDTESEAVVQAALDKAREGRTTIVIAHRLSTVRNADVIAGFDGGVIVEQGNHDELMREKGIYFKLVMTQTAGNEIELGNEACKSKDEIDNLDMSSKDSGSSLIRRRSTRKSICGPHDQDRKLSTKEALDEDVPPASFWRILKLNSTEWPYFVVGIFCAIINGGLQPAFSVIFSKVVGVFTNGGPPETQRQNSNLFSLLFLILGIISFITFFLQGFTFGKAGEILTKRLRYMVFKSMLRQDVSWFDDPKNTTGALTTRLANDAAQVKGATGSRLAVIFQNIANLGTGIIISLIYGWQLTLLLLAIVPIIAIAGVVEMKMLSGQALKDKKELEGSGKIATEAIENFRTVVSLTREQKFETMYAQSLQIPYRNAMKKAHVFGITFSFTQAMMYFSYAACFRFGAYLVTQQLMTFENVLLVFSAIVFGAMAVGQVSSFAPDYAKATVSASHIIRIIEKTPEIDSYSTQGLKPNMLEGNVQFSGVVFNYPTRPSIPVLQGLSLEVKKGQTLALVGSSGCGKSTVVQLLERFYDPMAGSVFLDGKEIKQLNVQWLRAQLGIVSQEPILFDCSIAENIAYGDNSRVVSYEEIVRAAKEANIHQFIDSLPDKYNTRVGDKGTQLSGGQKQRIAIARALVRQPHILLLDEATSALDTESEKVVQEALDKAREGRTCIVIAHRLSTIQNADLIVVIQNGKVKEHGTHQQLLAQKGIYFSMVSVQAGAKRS
# MDR1 (ABCB1) = MDR1 (ABCB1) (Homo sapiens, UniProt P08183); assay: Induction of human histidine10-tagged MDR1 ATPase activity expressed in BHK cells relative to basal activity
# MDR1 (ABCB1), sequence (P08183 whole entry): as the sequence (P08183 whole entry) above
# MDR1 [9] = assay: Efflux ratio of permeability from apical to basolateral over basolateral to apical side in MDCK2 cells over expressing MDR1 at 5 uM after 1 hr in presence LSN335984 pretreated for 30 mins measured after 1 hr; settings: dog
# MDR1 [10] = assay: as §1; settings: dog
# [11] = molecular target: ATP-dependent translocase ABCB1 (Mus musculus, UniProt P21447); assay: Inhibition of verapamil-stimulated ATPase activity of mouse cysteine-less MDR3
# ATP-dependent translocase ABCB1 (Mus musculus, UniProt P21447), sequence (P21447 whole entry, looked up): as the sequence (P21447 whole entry) above
# MDR1 [12] = assay: as §2; settings: dog, MDCK-MDR1
# [13] = molecular target: T1, ATP-dependent translocase ABCB1; assay: Inhibition of verapamil-stimulated ATPase activity of human histidine10-tagged MDR1 expressed in BHK cells
# [14] = Ratio of permeability from apical to basolateral side after 1 hr of drug washout by methanol to apical to basolateral side in MDCK2 cell monolayer over expressing MDR1 at 5 uM after 1 hr of drug washout by methanol in presence LSN335984; settings: dog, mdck-ii
# MDR1 [15] = assay: (§5) Efflux ratio of permeability from apical to basolateral over basolateral to apical side in MDCK2 cells over expressing MDR1 at 5 uM after 1 hr; settings: dog, MDCK-MDR1
# MDR1 [16] = assay: as §3; settings: dog, MDCK-MDR1
# MDR1 [17] = assay: as §4; settings: dog
# [18] = as §5; settings: dog, MDCK-MDR1, 1 h, 5 µM
# [19] = human histidine10-tagged MDR1 expressed in BHK cells
# [20] = MDCK-MDR1, with LSN335984 (concentration not stated)
structure (smiles),measurement,setting,value
C[N+](C)=c1ccc2c(-c3ccc(C(=S)N4CCCCC4)s3)c3cc4c5c(c3sc-2c1)CCCN5CCC4.F[P-](F)(F)(F)(F)F,logP,[1],2.7
same,permeability,[2],0.8 nm/s
same,Activity,"[3]; MDCK-MDR1, 1 h",30%
same,permeability,[4],0.8 nm/s
same,permeability,[5],50 nm/s
same,permeability,[6],1.6 nm/s
same,Activity,"[7]; MDCK-MDR1, 1 h",23%
C[N+](C)=c1ccc2c(-c3ccc(C(=S)N4CCOCC4)s3)c3cc4c5c(c3[se]c-2c1)CCCN5CCC4,IC50,[8],14 µM
CN(C)c1ccc2c(-c3ccccc3)c3ccc(=[N+](C)C)cc-3[se]c2c1,fold induction,MDR3 (ABCB1); mouse cysteine-less MDR3,4
same,IC50,[8],11 µM
same,fold induction,MDR1 (ABCB1); [19],7.2
CCN(CC)C(=O)c1ccc(-c2c3ccc(=[N+](C)C)cc-3[se]c3cc(N(C)C)ccc23)s1.F[P-](F)(F)(F)(F)F,fold induction,MDR3 (ABCB1); mouse cysteine-less MDR3,10.1
same,logP,[1],-0.39
same,Activity,"[3]; mdck-ii, 1 h",24%
same,fold induction,MDR1 (ABCB1); [19],10.5
same,Activity,"[7]; mdck-ii, 1 h",11%
C[N+](C)=c1ccc2c(-c3ccc(C(=S)N4CCCCC4)s3)c3cc4c5c(c3[se]c-2c1)CCCN5CCC4,IC50,[8],5.3 µM
CN(C)c1cccc(-c2c3ccc(=[N+](C)C)cc-3[se]c3cc(N(C)C)ccc23)c1,fold induction,MDR1 (ABCB1); [19],7.6
C[N+](C)=c1ccc2c(-c3ccccc3)c3cc4c5c(c3[se]c-2c1)CCCN5CCC4.F[P-](F)(F)(F)(F)F,fold induction,MDR3 (ABCB1); mouse cysteine-less MDR3,2.1
same,logP,[1],2.4
same,"efflux ratio at 1 h, 5 µM",MDR1 [9]; [20],0.9
same,"Papp A→B at 1 h, 5 µM",MDR1 [10]; [20],1.3 ×10⁻⁶ cm/s
same,Activity,"[3]; mdck-ii, 1 h",64%
same,IC50,[11],0.28 µM
same,IC50,[8],4.9 µM
same,"Papp A→B at 1 h, 5 µM",MDR1 [12],1.6 ×10⁻⁶ cm/s
same,IC50,[13],2.3 µM
same,fold induction,MDR1 (ABCB1); [19],< 1.5
same,Ratio,[14],2
same,"efflux ratio at 1 h, 5 µM",MDR1 [15],15
same,"Papp B→A at 1 h, 5 µM",MDR1 [16],25 ×10⁻⁶ cm/s
same,"Papp B→A at 1 h, 5 µM",MDR1 [17]; [20],1.2 ×10⁻⁶ cm/s
same,Activity,"[7]; mdck-ii, 1 h",32%
CN(C)c1ccc(-c2c3ccc(=[N+](C)C)cc-3[se]c3cc(N(C)C)ccc23)cc1,fold induction,MDR3 (ABCB1),2.3
same,IC50,[11],21 µM
same,fold induction,MDR1 (ABCB1); bhk,6.8
CCOC(=O)c1ccc(-c2c3ccc(=[N+](C)C)cc-3sc3cc(N(C)C)ccc23)s1,fold induction,MDR3 (ABCB1); mouse cysteine-less MDR3,2.9
COc1cccc(-c2c3ccc(=[N+](C)C)cc-3sc3cc(N(C)C)ccc23)c1.[Br-],logP,[1],0.14
same,Activity,"[3]; mdck-ii, 1 h",56%
C[N+](C)=c1ccc2c(-c3ccccc3)c3cc4c5c(c3[te]c-2c1)CCCN5CCC4,fold induction,MDR1 (ABCB1); [19],3
CN(C)c1ccc(-c2c3ccc(=[N+](C)C)cc-3[te]c3cc(N(C)C)ccc23)cc1,fold induction,MDR1 (ABCB1); [19],4.5
CN(C)c1ccc(-c2c3ccc(=[N+](C)C)cc-3[se]c3c4c5c(cc23)CCCN5CCC4)cc1,IC50,[13],6.8 µM
same,fold induction,MDR1 (ABCB1); [19],< 1.5
COc1cccc(-c2c3ccc(=[N+](C)C)cc-3[se]c3cc(N(C)C)ccc23)c1,fold induction,MDR3 (ABCB1); mouse cysteine-less MDR3,6.4
same,fold induction,MDR1 (ABCB1); [19],2.5
CN(C)c1ccc2c(-c3ccccc3C(=O)O)c3ccc(=[N+](C)C)cc-3sc2c1,fold induction,MDR3 (ABCB1); mouse cysteine-less MDR3,3.5
COC(=O)c1ccccc1-c1c2ccc(=[N+](C)C)cc-2sc2cc(N(C)C)ccc12,fold induction,MDR3 (ABCB1); mouse cysteine-less MDR3,6
COc1cccc(-c2c3ccc(=[N+](C)C)cc-3[te]c3cc(N(C)C)ccc23)c1,fold induction,MDR1 (ABCB1); [19],5.7
COc1ccc(-c2c3ccc(=[N+](C)C)cc-3sc3cc(N(C)C)ccc23)cc1OC.F[P-](F)(F)(F)(F)F,fold induction,MDR3 (ABCB1); mouse cysteine-less MDR3,3
same,logP,[1],0.28
same,Activity,"[3]; mdck-ii, 1 h",53%
same,fold induction,MDR1 (ABCB1); [19],8.2
same,Activity,"[7]; mdck-ii, 1 h",16%
CN(C)c1ccc2c(-c3ccsc3C(=O)O)c3ccc(=[N+](C)C)cc-3sc2c1,fold induction,MDR1 (ABCB1); [19],4.3
CN(C)c1ccc2c(-c3ccc(C(=O)O)s3)c3ccc(=[N+](C)C)cc-3sc2c1,fold induction,MDR1 (ABCB1); [19],2.7
CN(C)c1ccc2c(CCCOc3ccccc3)c3ccc(=[N+](C)C)cc-3sc2c1,fold induction,MDR3 (ABCB1); mouse cysteine-less MDR3,6
same,fold induction,MDR1 (ABCB1); [19],6.2
CCN(CC)C(=O)c1ccc(-c2c3ccc(=[N+](C)C)cc-3sc3cc(N(C)C)ccc23)s1,fold induction,MDR3 (ABCB1); mouse cysteine-less MDR3,10.6
CN(C)c1ccc2c(-c3ccc(N4CCOCC4)cc3)c3ccc(=[N+](C)C)cc-3[se]c2c1,fold induction,MDR3 (ABCB1); mouse cysteine-less MDR3,< 1
same,IC50,[11],23 µM
same,fold induction,MDR1 (ABCB1); [19],3.3
CN(C)c1ccc2c(-c3ccc(C(=S)N4CCCCC4)s3)c3ccc(=[N+](C)C)cc-3sc2c1,logP,[1],1.7
same,IC50,[11],32 µM
C[N+](C)=c1ccc2c(-c3ccc(C(=S)N4CCCCC4)s3)c3cc4c5c(c3[te]c-2c1)CCCN5CCC4,IC50,[8],14 µM
C[N+](C)=c1ccc2c(-c3ccc(C(=S)N4CCOCC4)s3)c3cc4c5c(c3sc-2c1)CCCN5CCC4,IC50,[8],20 µM
CN(C)c1ccc2c(-c3ccccc3)c3ccc(=[N+](C)C)cc-3[te]c2c1,fold induction,MDR1 (ABCB1); [19],8.4
CN(C)c1ccc2c(-c3ccc(C(=O)O)s3)c3ccc(=[N+](C)C)cc-3[te]c2c1,fold induction,MDR1 (ABCB1); [19],1.8
CN(C)c1ccc2c(-c3ccc(N4CCOCC4)cc3)c3ccc(=[N+](C)C)cc-3sc2c1,fold induction,MDR1 (ABCB1); [19],4.8
CN(C)c1cccc(-c2c3ccc(=[N+](C)C)cc-3sc3cc(N(C)C)ccc23)c1,fold induction,MDR3 (ABCB1); mouse cysteine-less MDR3,3.5
same,fold induction,MDR1 (ABCB1); [19],7.7
CN(C)c1ccc(-c2c3ccc(=[N+](C)C)cc-3sc3cc(N(C)C)ccc23)cc1,fold induction,MDR3 (ABCB1); mouse cysteine-less MDR3,1
same,fold induction,MDR1 (ABCB1); [19],9
CN(C)c1ccc2c(-c3ccsc3C(=O)O)c3ccc(=[N+](C)C)cc-3[se]c2c1,fold induction,MDR3 (ABCB1); mouse cysteine-less MDR3,1.7
same,fold induction,MDR1 (ABCB1); [19],2.1
CN(C)c1ccc2c(-c3ccc(C(=S)N4CCCCC4)s3)c3ccc(=[N+](C)C)cc-3[te]c2c1.F[P-](F)(F)(F)(F)F,"efflux ratio at 1 h, 5 µM",MDR1 [9]; MDCK-MDR1,1.7
same,"Papp A→B at 1 h, 5 µM",MDR1 [10]; MDCK-MDR1,0.12 ×10⁻⁶ cm/s
same,"Papp A→B at 1 h, 5 µM",MDR1 [12],0.09 ×10⁻⁶ cm/s
same,"efflux ratio at 1 h, 5 µM",MDR1 [15],24
same,"Papp B→A at 1 h, 5 µM",MDR1 [16],2.2 ×10⁻⁶ cm/s
same,"Papp B→A at 1 h, 5 µM",MDR1 [17]; MDCK-MDR1,0.2 ×10⁻⁶ cm/s
same,Activity,"[7]; MDCK-MDR1, 1 h",12%
CN(C)c1cccc(-c2c3ccc(=[N+](C)C)cc-3[se]c3c4c5c(cc23)CCCN5CCC4)c1,IC50,[13],23.6 µM
same,fold induction,MDR1 (ABCB1); [19],< 1.5
CCN(CC)C(=O)c1ccccc1-c1c2ccc(=[N+](C)C)cc-2sc2cc(N(C)C)ccc12,fold induction,MDR3 (ABCB1); mouse cysteine-less MDR3,10.1
CN(C)c1cccc(-c2c3ccc(=[N+](C)C)cc-3[te]c3cc(N(C)C)ccc23)c1,fold induction,MDR1 (ABCB1); [19],5.5
CN(C)c1ccc2c(-c3ccc(CCl)cc3)c3ccc(=[N+](C)C)cc-3oc2c1.[Br-] [TETRAMETHYLROSAMINE],fold induction,MDR3 (ABCB1); mouse cysteine-less MDR3,3.7
same,logP,[1],1.1
same,"efflux ratio at 1 h, 5 µM",MDR1 [9]; MDCK-MDR1,1.6
same,"Papp A→B at 1 h, 5 µM",MDR1 [10]; [20],1.4 ×10⁻⁶ cm/s
same,Activity,"[3]; mdck-ii, 1 h",54%
same,"Papp A→B at 1 h, 5 µM",MDR1 [12],0.3 ×10⁻⁶ cm/s
same,Ratio,[14],4.3
same,Ratio,[18],338
same,"Papp B→A at 1 h, 5 µM",MDR1 [16],101 ×10⁻⁶ cm/s
same,"Papp B→A at 1 h, 5 µM",MDR1 [17]; [20],2.1 ×10⁻⁶ cm/s
same,Activity,"[7]; mdck-ii, 1 h",14.5%
